The values below come from US8906685B2, “Hanging drop devices, systems and/or methods” (The Regents of The University of Michigan, priority 2010, dated 2014).

One assay has as its system A431.H9 cells. Nature of the assay: anti-cancer drug sensitivity testing, conventional 2D culture in 96-well plates, alamarBlue cell viability. The settings on record: Homo sapiens, % cell viability 96 hours after drug treatment, read-out: IC50 of A431.H9 cells cultured in conventional 2D condition. It is filed as cell-based. The protocol: To investigate the stability of long-term hanging drop spheroid culture using the designed array plate, osmolality measurements were performed while culturing three types of cells: kidney fibroblast cell (COS7), murine embryonic stem (mES) cell (ES-D3), and a human carcinoma cell that stably express mesothelin (A431.H9). […]
According to the procedure mentioned above, A431.H9 spheroids at the specified cell numbers were formed, and their growth media were exchanged every other day. […] Cellular viability was monitored at 24, 48, 72, and 96 hours of drug incubation using alamarBlue (Invitrogen). […] Following incubation, each A431.H9 hanging drop spheroid sample plate was read using a plate reader (FLx800 Fluorescence Microplate Reader, Biotek) at 525 nm excitation and 590 nm emission to obtain fluorescence intensity readout. As the fluorescence intensity of alamarBlue is directly proportional to cell number, the average percent cell viability for each drug concentration can be calculated easily by normalizing to the 0 μM untreated spheroid control. […]

For assay [1], the system named is A431.H9 spheroids. The experiment in a line: anti-cancer drug sensitivity testing, 3D spheroids in 384 hanging drop array plate, alamarBlue cell viability. The settings on record: Homo sapiens. It is filed as cell-based. Here is the method:
To investigate the stability of long-term hanging drop spheroid culture using the designed array plate, osmolality measurements were performed while culturing three types of cells: kidney fibroblast cell (COS7), murine embryonic stem (mES) cell (ES-D3), and a human carcinoma cell that stably express mesothelin (A431.H9). Prior to performing hanging drop culture using the plate, ES-D3 cells were cultured in dishes coated with 0.1% w/v porcine gel (Sigma-Aldrich) and maintained in medium consisting of Dulbecco's Modified Eagle's Medium (DMEM) (Gibco 11960, Invitrogen) with 15% v/v fetal bovine serum (FBS) (Gibco 10082, Invitrogen), 4 mM L-glutamin (Invitrogen), 0.1 mM 2-mercapto-ethanol (Sigma-Aldrich), 0.02% v/v sodium pyruvate (Sigma-Aldrich), 100 U ml^−1 penicillin (Invitrogen), 100 U ml^−1 streptomycin (Invitrogen), and 1000 U ml^−1 ESGRO (Invitrogen) which contains leukemia inhibitory factor (LIF). COS7 and A431.H9 cells were cultured in DMEM (Gibco 11965, Invitrogen) with 10% v/v FBS (Gibco 10082, Invitrogen), and 1% v/v antibiotic-antimicotic (Gibco 15240, Invitrogen). All the cells were cultured in a humidified incubator (37° C. in an atmosphere of 5% CO^2). Cell suspensions for the hanging drop experiments were made by dissociating cells with 0.25% trypsin-EDTA (Gibco 25200, Invitrogen), centrifugation of dissociated cells at 1000 rpm for 1 min at room temperature, and re-suspended in growth media. Cell density was estimated using a hemocytometer.
On the spheroid culture plate, a 15 μl cell suspension was dispensed into the access hole at each cell culture site to form a hanging drop. In order to prevent evaporation, 4 ml of distilled water was added into the peripheral water reservoir. In addition, the plate was sandwiched by a well-plate lid and a 96-well plate filled with distilled water, and wrapped using a Parafilm. The growth media was exchanged every other day by taking 5 μl solution from a drop, and adding 7 μl fresh growth media into a drop. For the osmolality measurement, 10 μl sample solution was pipetted out from a drop and transferred to a vapor pressure osmometer (Vapro Model 5520, Wesco, Inc.) for analysis.
According to the procedure mentioned above, A431.H9 spheroids at the specified cell numbers were formed, and their growth media were exchanged every other day. TPZ and 5-FU stock solutions of four times the final testing concentrations (0, 0.1, 1, 10, 100, 1000, 5000 μM) were initially prepared in Dulbecco's phosphate buffered saline (D-PBS) (Gibco 14190, Invitrogen). On day 2 of A431.H9 spheroid culture, 5 μl of the appropriate concentration of TPZ (or 5-FU) stock solutions was subsequently added to each of the 15 μl A431.H9 cell hanging drop droplets. Cellular viability was monitored at 24, 48, 72, and 96 hours of drug incubation using alamarBlue (Invitrogen). Following manufacturer's protocol, 2 μl (one-tenth of each hanging drop sample volume) of alamarBlue was added to each A431.H9 hanging drop spheroid sample and incubated for 2 hours. Following incubation, each A431.H9 hanging drop spheroid sample plate was read using a plate reader (FLx800 Fluorescence Microplate Reader, Biotek) at 525 nm excitation and 590 nm emission to obtain fluorescence intensity readout. As the fluorescence intensity of alamarBlue is directly proportional to cell number, the average percent cell viability for each drug concentration can be calculated easily by normalizing to the 0 μM untreated spheroid control. […]
In general terms: The colour change of resazurin is a common sign of viable cells or microbes.

Assay [2] has as its system A431.H9 spheroids. The experiment in a line: time-lapse images of drug-treated spheroids in 384 hanging drop array plate. The settings on record: all 3 spheroid sizes, 96 hours; for spheroid size over the drug treatment period: 10 μM drug; for spheroid viability / integrity over the drug treatment period: 5000 μM drug. It is filed as cell-based, human. The protocol:
According to the procedure mentioned above, A431.H9 spheroids at the specified cell numbers were formed, and their growth media were exchanged every other day. TPZ and 5-FU stock solutions of four times the final testing concentrations (0, 0.1, 1, 10, 100, 1000, 5000 μM) were initially prepared in Dulbecco's phosphate buffered saline (D-PBS) (Gibco 14190, Invitrogen). On day 2 of A431.H9 spheroid culture, 5 μl of the appropriate concentration of TPZ (or 5-FU) stock solutions was subsequently added to each of the 15 μl A431.H9 cell hanging drop droplets. Cellular viability was monitored at 24, 48, 72, and 96 hours of drug incubation using alamarBlue (Invitrogen). Following manufacturer's protocol, 2 μl (one-tenth of each hanging drop sample volume) of alamarBlue was added to each A431.H9 hanging drop spheroid sample and incubated for 2 hours. Following incubation, each A431.H9 hanging drop spheroid sample plate was read using a plate reader (FLx800 Fluorescence Microplate Reader, Biotek) at 525 nm excitation and 590 nm emission to obtain fluorescence intensity readout. As the fluorescence intensity of alamarBlue is directly proportional to cell number, the average percent cell viability for each drug concentration can be calculated easily by normalizing to the 0 μM untreated spheroid control. Anti-cancer drug sensitivity experiments under 2D control conditions were performed in standard tissue culture treated 96-well plates (Corning Costar 3596), with everything else being the same as the 3D spheroid experiments. 50% of culture media was replaced by fresh media every other day.
FIGS. 3a-c show the time-lapse images of A431.H9 spheroids treated with TPZ at 0, 10, and 5000 μM for 3 different spheroid sizes (300, 1500, and 7500-cell spheroids). The control untreated A431.H9 spheroids at all 3 sizes still grow and proliferate properly over the duration of drug treatment. […] The IC50 of A431.H9 cells cultured in conventional 2D condition is about 50 μM, while the IC50 of the A431.H9 3D spheroids for all 3 sizes is about 8 μM. Contrary to most anti-cancer drugs, A431.H9 cells treated with TPZ are more resistant when cultured under 2D conditions rather than 3D conditions.
Similarly, FIGS. 4a-c show the time-lapse images of A431.H9 spheroids treated with 5-FU at 0, 10, and 5000 μM for 3 different spheroid sizes (300, 1500, and 7500-cell spheroids). Again, the control untreated A431.H9 spheroids at all 3 sizes all look healthy and still proliferate properly over the duration of drug treatment. […] By 96 hours after drug treatment, significant portions of cells had already dissociated from the A431.H9 spheroids, indicating drug cytotoxicity. […]

Setting [3] is: ALL3, 96 h, 3D condition, all 3 spheroid sizes (300, 1500, 7500-cell), 96 hours after drug treatment.

A word on the IC50: it is the midpoint of a concentration-inhibition curve. For the molecule `Nc1n[n+]([O-])c2ccccc2[n+]1[O-]` [TPZ, tirapazamine], in the assay on A431.H9 cells, the IC50 was approximately 50 µM. In the assay on A431.H9 spheroids [1] (setting [3]), this molecule showed an IC50 of approximately 8 µM. Besides, in the assay on A431.H9 spheroids [2], the “spheroid size over the drug treatment period” value is recorded as “stayed relatively constant” and the “spheroid viability / integrity over the drug treatment period” value was “poor viability”.

On to `O=c1[nH]cc(F)c(=O)[nH]1` [5-FU, 5-fluorouracil], for which the IC50 with A431.H9 cells is approximately 0.1 µM; with A431.H9 spheroids [1] (96 h, 300-cell spheroids, 96 hours after treatment) it was approximately 3 µM; in the assay on A431.H9 spheroids [1] (96 h, 1500-cell spheroids, 96 hours after treatment), approximately 1 µM; in the assay on A431.H9 spheroids [1] (96 h, 7500-cell spheroids, 96 hours after treatment), approximately 90 µM; in the assay on A431.H9 spheroids [1] (setting [3]), 1 to 100 µM. The “spheroid size over the drug treatment period” value in the assay on A431.H9 spheroids [2] is “slowly become smaller”. Also, in the assay with A431.H9 spheroids [2], the “spheroid viability / integrity over the drug treatment period” value is reported as “spheroid integrity was greatly compromised”.
